Results on twelve compounds are retold here after patent publication US6809101B2, “Compounds having anti-hepatitis C virus effect” (priority 2000, dated 2004).

Bounds are passed on as bounds.

T1 sequence (P19711 3270-3988): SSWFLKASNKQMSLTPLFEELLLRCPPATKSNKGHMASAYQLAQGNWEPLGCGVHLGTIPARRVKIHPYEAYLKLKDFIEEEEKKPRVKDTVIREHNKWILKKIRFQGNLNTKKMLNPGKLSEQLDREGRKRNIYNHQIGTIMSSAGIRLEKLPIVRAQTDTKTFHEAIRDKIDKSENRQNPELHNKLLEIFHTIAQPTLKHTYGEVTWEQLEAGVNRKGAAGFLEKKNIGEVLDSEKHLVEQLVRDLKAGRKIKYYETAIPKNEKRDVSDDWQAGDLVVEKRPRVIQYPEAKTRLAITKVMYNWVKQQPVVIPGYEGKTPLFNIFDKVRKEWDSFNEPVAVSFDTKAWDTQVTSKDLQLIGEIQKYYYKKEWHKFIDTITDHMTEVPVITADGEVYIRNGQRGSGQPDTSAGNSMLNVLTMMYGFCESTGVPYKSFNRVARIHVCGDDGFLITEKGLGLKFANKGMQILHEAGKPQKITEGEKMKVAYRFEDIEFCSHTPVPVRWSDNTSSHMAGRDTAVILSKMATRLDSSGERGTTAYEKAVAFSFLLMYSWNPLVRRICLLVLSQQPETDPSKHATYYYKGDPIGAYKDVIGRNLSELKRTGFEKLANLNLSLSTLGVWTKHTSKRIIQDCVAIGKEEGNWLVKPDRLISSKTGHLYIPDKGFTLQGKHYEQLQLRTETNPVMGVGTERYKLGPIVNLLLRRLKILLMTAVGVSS

One series concerns the target HCV RNA-dependent RNA polymerase (UniProt P27958). The series is described as follows: Inhibitory activity against HCV RNA-dependent RNA polymerase (Experiment Example 1). The format is biochemical, hepatitis C virus (HCV). As to conditions: Experimental example 1; poly(A) template, oligo(U)12 primer, 3H-UTP substrate, enzyme reaction 25° C. for 30 min; read-out: IC50 for HCV RdRp (converted). From the text: Inhibitory Activity Against HCV RNA-Dependent RNA Polymerase
(1) Preparation of Hepatitis C Virus (HCV) RNA-Dependent RNA Polymerase
It was collected several cDNA clones of HCV RNA-dependent RNA polymerase from plasma of people infected with HCV, RNA-dependent RNA polymerase was expressed by using insect cell or E. coli from these clones. RNA-dependent RNA polymerase in cell extract was purified by anion-exchange chromatography, heparin-affinity chromatography, poly U-affinity chromatography, cation-exchange chromatography, gel filtration chromatography, and the like. The preparation was done at about 4° C. under low temperature condition, as solution dissolving enzyme was used Tris buffer (pH 7.5) containing ethylenediamine tetraacetic acid (1 mM), dithiothreitol (10 mM), and glycerol (20%). The purified enzyme was kept at 4° C. or −20° C. until it was used for assay.
(2) Method of HCV RNA-Dependent RNA Polymerase Assay
(1) In polypropylene vessel was added buffer I*^1)(10.5 μL) containing Tris-HCl (100 mM, pH 7.5), magnesium chloride (25 mM), dithiothreitol (5 mM), potassium chloride (125 mM), ethylenediamine tetraacetic acid (5 mM), and then were added poly(A)*^2) aqueous solution (100 μg/mL, 10.5 μL), oligo(U)12*^3) aqueous solution (10 μg/mL, 10.5 μL), and water (8 μL), and the mixture was mixed slowly.
*1) All of water used as experimental material in enzyme reaction were carried out inactivation treatment of Rnase with diethylpyrocarbonate. The inactivation treatment with diethylpyrocarbonate was carried out as follows, 1) diethylpyrocarbonate (0.1 g) was dissolved in de-ionized water (100 mL), 2) the solution was stood at 37° C. for 24 h, 3) kept in autoclave at 120° C. for 30 min.
*2) Poly(A) is single strand polynucleotide composed with only adenylic acid. It was used as template.
*3) Oligo(U)12 is single strand oligonucleotide composed with only 12 element of uridylic acid. It was used as primer.
(2) Next, to the mixture was added a solution (10.5 μL) of RNA-dependent RNA polymerase, and preincubation was carried out at 25° C. for 60 min.
(3) A solution (50 μL) preincubated described in (2) was added into 96-wells microtiter plate divided test compound (5.26 μL per well) dissolved with dimethylsulfoxide or water.
*4) UTP is uridine triphosphate. It was used as substrate.
(5) When the enzyme reaction was passed for 30 min, to the mixture was added a aqueous solution (50 mM, 50 μL) of ethylenediamine tetraacetic acid disodium and the enzyme reaction was stopped.
(6) Next, after all volume of sample of (5) was transferred on filter introduced diethylaminoethyl group (henceforth shortening as DEAE-filter mat) by using cell harvester, was carried the washing twice with sodium phosphate buffer (0.25 M, pH 7.0) for 10 sec and the washing once with deionized water for 10 sec.
(7) After the washing, DEAE-filter mat was dried at 95° C. for 15 min and sealed together with liquid scintillator (10 mL) into sample bag.
(8) Radioactivity was measured by using scintillation counter.
(9) The percentage of inhibition was calculated by replacing the measured value of radioactivity (unit; ccpm) into the following expression.
The percentage of inhibition=100−(the measured value in presence of test compound−the measured value in absence of enzyme)÷(the measured value in absence of test compound−the measured value in absence of enzyme)×100.
(10) The concentration of test compound inhibiting 50% (IC50) was obtained from the percentage of inhibition calculated in (9) and the used concentration of test compound inhibiting.
In case of the percentage of inhibition is A % when α μg/mL of the compound is used and the percentage of inhibition is B % when β μg/ml of the compound is used, IC50 was obtained from the following expression. Provided that it is theorized as A≧50>B. […]
Consider `O=C1NC(=S)SC1=C(O)c1ncccn1` [Compound I-35, 5-[1-Hydroxy-1-(pyrimidin-2-yl)]methylene-2-thioxothiazolidin-4-one], for which the half-inhibitory concentration (IC50) (in general, the midpoint of a concentration-inhibition curve) was 5.85 µM.

Consider `O=C1NC(=S)SC1=C(O)c1ccccn1` [Compound I-37, 5-[1-Hydroxy-1-(pyridin-2-yl)]methylene-2-thioxothiazolidin-4-one], for which the half-inhibitory concentration (IC50) is 12.6 µM.

Regarding `O=C1NC(=S)S/C1=C(/O)c1ccco1` [Compound I-2, 5-[1-(Furan-2-yl)-1-hydroxy]methylene-2-thioxothiazolidin-4-one], the half-maximal inhibitory concentration (IC50) is 3.96 µM.

For the compound `O=C1NC(=S)SC1=C(O)c1ccon1` [Compound I-29, 5-[1-(Isoxazol-3-yl)1-hydroxy]methylene-2-thioxothiazolidin-4-one], the IC50 was 7.89 µM.

In the case of `Cc1nnc(C(O)=C2SC(=S)NC2=O)o1` [Compound I-40, 5-[1-Hydroxy-1-(5-methyl-1,3,4-oxadiazol-2-yl)]methylene-2-thioxothiazolidin-4-one], the IC50 is 8.22 µM.

Turning to `O=C1NC(=S)SC1=C(O)c1nn[nH]n1` [Compound I-32, 5-[1-Hydroxy-1-(2H-tetrazol-5-yl)]methylene-2-thioxothiazolidin-4-one], the half-inhibitory concentration (IC50) is 14 µM.

As to `Cc1ccc(C(O)=C2SC(=S)NC2=O)o1` [Compound I-22, 5-[1-Hydroxy-1-(5-methylfuran-2-yl)]methylene-2-thioxothiazolidin-4-one], the IC50 is 20.3 µM.

As for `O=C1NC(=S)SC1=C(O)c1cnccn1` [Compound I-36, 5-[1-Hydroxy-1-(pyrazin-2-yl)]methylene-2-thioxothiazolidin-4-one], the IC50 is 31.8 µM.

Consider `Cc1cnoc1C(O)=C1SC(=S)NC1=O` [Compound I-27, 5-[1-Hydroxy-1-(4-methylisoxazol-5-yl)]methylene-2-thioxothiazolidin-4-one], for which the IC50 was 6.6 µM.

For `O=C1NC(=S)SC1=C(O)c1nc[nH]n1` [Compound I-34, 5-[1-Hydroxy-1-(1H-1,2,4-triazol-3-yl)]methylene-2-thioxothiazolidin-4-one], the half-maximal inhibitory concentration (IC50) is 4.03 µM.

Regarding `O=C1NC(=S)SC1=C(O)c1ccno1` [Compound I-30, 5-[1-(Isoxazol-5-yl)1-hydroxy]methylene-2-thioxothiazolidin-4-one], the concentration for half-maximal inhibition (IC50) is 29.8 µM.

The series is the same for the next values; noted with them: read-out: IC50 for HCV RdRp; Experimental example 1; poly(A) template, oligo(U)12 primer, 3H-UTP substrate, enzyme reaction 25° C. for 30 min.
As to `Cc1cnc(/C(O)=C2\SC(=S)NC2=O)o1` [Compound I-1, 5-[1-Hydroxy-1-(5-methyloxazol-2-yl)]methylene-2-thioxothiazolidin-4-one], the IC50 is 1.03 µM.

The next series addresses T1, RNA-dependent RNA polymerase (RdRp) of bovine virus diarrhea virus (BVDV) (Bovine viral diarrhea virus, UniProt P19711).
T1 construct: RNA-dependent RNA polymerase (RdRp) of bovine virus diarrhea virus (BVDV)
Put plainly: Inhibitory activity against BVDV RNA-dependent RNA polymerase (Experiment Example 2). The class given is biochemical. As to conditions: Experimental example 2; same way as experiment example 1. The source says: Inhibitory Activity Against BVDV RNA-Dependent RNA Polymerase
Inhibitory activity against RNA-dependent RNA polymerase (RdRp) of bovine virus diarrhea virus (BVDV) was experimented too in the same way in experiment example 1.
`O=C1NC(=S)SC1=C(O)c1ncccn1` [Compound I-35, 5-[1-Hydroxy-1-(pyrimidin-2-yl)]methylene-2-thioxothiazolidin-4-one]: the 50% inhibitory concentration (IC50) was 142 µM.

As for `O=C1NC(=S)SC1=C(O)c1ccccn1` [Compound I-37, 5-[1-Hydroxy-1-(pyridin-2-yl)]methylene-2-thioxothiazolidin-4-one], the half-inhibitory concentration (IC50) was 151 µM.

For the compound `O=C1NC(=S)S/C1=C(/O)c1ccco1` [Compound I-2, 5-[1-(Furan-2-yl)-1-hydroxy]methylene-2-thioxothiazolidin-4-one], the midpoint of inhibition, the IC50, lay at 79.2 µM.

For `Cc1cnc(/C(O)=C2\SC(=S)NC2=O)o1` [Compound I-1, 5-[1-Hydroxy-1-(5-methyloxazol-2-yl)]methylene-2-thioxothiazolidin-4-one], the IC50 is 10.3 µM.

`O=C1NC(=S)SC1=C(O)c1ccon1` [Compound I-29, 5-[1-(Isoxazol-3-yl)1-hydroxy]methylene-2-thioxothiazolidin-4-one] showed an IC50 of 118 µM.

As to `Cc1nnc(C(O)=C2SC(=S)NC2=O)o1` [Compound I-40, 5-[1-Hydroxy-1-(5-methyl-1,3,4-oxadiazol-2-yl)]methylene-2-thioxothiazolidin-4-one], half-maximal inhibition (IC50) was put at 21.8 µM.

The compound `O=C1NC(=S)SC1=C(O)c1nn[nH]n1` [Compound I-32, 5-[1-Hydroxy-1-(2H-tetrazol-5-yl)]methylene-2-thioxothiazolidin-4-one] gave a 50% inhibitory concentration (IC50) of 161 µM.

`Cc1ccc(C(O)=C2SC(=S)NC2=O)o1` [Compound I-22, 5-[1-Hydroxy-1-(5-methylfuran-2-yl)]methylene-2-thioxothiazolidin-4-one] gave an IC50 of 153 µM.

For `O=C1NC(=S)SC1=C(O)c1cnccn1` [Compound I-36, 5-[1-Hydroxy-1-(pyrazin-2-yl)]methylene-2-thioxothiazolidin-4-one], the 50% inhibitory concentration (IC50) is 159 µM.

`Cc1cnoc1C(O)=C1SC(=S)NC1=O` [Compound I-27, 5-[1-Hydroxy-1-(4-methylisoxazol-5-yl)]methylene-2-thioxothiazolidin-4-one]: it took 74.3 µM to reach half-maximal inhibition (IC50).

Take `O=C1NC(=S)SC1=C(O)c1nc[nH]n1` [Compound I-34, 5-[1-Hydroxy-1-(1H-1,2,4-triazol-3-yl)]methylene-2-thioxothiazolidin-4-one]: the half-maximal inhibitory concentration (IC50) is 61.3 µM.

`O=C1NC(=S)SC1=C(O)c1ccno1` [Compound I-30, 5-[1-(Isoxazol-5-yl)1-hydroxy]methylene-2-thioxothiazolidin-4-one] showed a half-maximal inhibitory concentration (IC50) of 140 µM.

System in a further series: not given
Experiment: not given
Settings: not given
With `O=C1NC(=S)SC1=C(O)c1ncccn1` [Compound I-35, 5-[1-Hydroxy-1-(pyrimidin-2-yl)]methylene-2-thioxothiazolidin-4-one], the melting point – broadly, the temperature, or range, at which the solid turns liquid – was > 250 °C (dec.).

For `O=C1NC(=S)SC1=C(O)c1ccccn1` [Compound I-37, 5-[1-Hydroxy-1-(pyridin-2-yl)]methylene-2-thioxothiazolidin-4-one], the melting point was > 250 °C (dec.).

Consider `O=C1NC(=S)S/C1=C(/O)c1ccco1` [Compound I-2, 5-[1-(Furan-2-yl)-1-hydroxy]methylene-2-thioxothiazolidin-4-one], for which the melting point is 230 to 235 °C (dec.).

As to `Cc1cnc(/C(O)=C2\SC(=S)NC2=O)o1` [Compound I-1, 5-[1-Hydroxy-1-(5-methyloxazol-2-yl)]methylene-2-thioxothiazolidin-4-one], the melting point is 243 to 245 °C (dec.).

Consider `O=C1NC(=S)SC1=C(O)c1ccon1` [Compound I-29, 5-[1-(Isoxazol-3-yl)1-hydroxy]methylene-2-thioxothiazolidin-4-one], for which the melting point is 210 to 215 °C (dec.).

Turning to `Cc1nnc(C(O)=C2SC(=S)NC2=O)o1` [Compound I-40, 5-[1-Hydroxy-1-(5-methyl-1,3,4-oxadiazol-2-yl)]methylene-2-thioxothiazolidin-4-one], the melting point was 230 to 237 °C (dec.).

Regarding `O=C1NC(=S)SC1=C(O)c1nn[nH]n1` [Compound I-32, 5-[1-Hydroxy-1-(2H-tetrazol-5-yl)]methylene-2-thioxothiazolidin-4-one], the melting point is 188 to 193 °C (dec.).

On to `Cc1ccc(C(O)=C2SC(=S)NC2=O)o1` [Compound I-22, 5-[1-Hydroxy-1-(5-methylfuran-2-yl)]methylene-2-thioxothiazolidin-4-one], for which the melting point is 195 to 198 °C (dec.).

In the case of `O=C1NC(=S)SC1=C(O)c1cnccn1` [Compound I-36, 5-[1-Hydroxy-1-(pyrazin-2-yl)]methylene-2-thioxothiazolidin-4-one], the melting point was > 250 °C (dec.).

Turning to `Cc1cnoc1C(O)=C1SC(=S)NC1=O` [Compound I-27, 5-[1-Hydroxy-1-(4-methylisoxazol-5-yl)]methylene-2-thioxothiazolidin-4-one], the melting point is 230 to 234 °C (dec.).

As for `O=C1NC(=S)SC1=C(O)c1nc[nH]n1` [Compound I-34, 5-[1-Hydroxy-1-(1H-1,2,4-triazol-3-yl)]methylene-2-thioxothiazolidin-4-one], the melting point was 285 to 290 °C (dec.).

For the compound `O=C1NC(=S)SC1=C(O)c1ccno1` [Compound I-30, 5-[1-(Isoxazol-5-yl)1-hydroxy]methylene-2-thioxothiazolidin-4-one], the melting point is 195 to 202 °C (dec.).
